Measurements as given in patent US9023393B2, “Pharmaceutical compositions of adsorbates of amorphous drugs and lipophilic microphase-forming materials” (Bend Research, Inc., priority 2003, dated 2015).

Tests used:
Type in all cases: physicochemical
[1] = In vitro dissolution test of Drug 1 compositions in PBS pH 6.5, room temperature, 0.45 μm syringe filter, UV; 50 μg/mL if all drug dissolved
Procedure: Example 1 consisted of Adsorbate 1 administered in solution with a lipophilic microphase-forming material. At time 0, a 4 mg sample of Adsorbate 1 was added to 40 mL phosphate buffered saline (PBS) at pH 6.5 and 290 mOsm/kg, containing 1 mg/mL of the lipophilic microphase-forming material Cremaphor RH40 (available from BASF of Mount Olive, N.J.). The concentration of drug would have been 50 μg/mL, if all of the drug had dissolved. The test solution was stirred at room temperature in a syringe equipped with a Gelman Acrodisc 13 CR 0.45 μm PTFE filter. At each sample time, 1 to 2 mL test solution was pushed through the filter and analyzed using UV to determine the concentration of Drug 1 in solution. Samples were collected at 0.5, 1, 2, 3, 5, 10, 15, 20, 30, 45, 60, 90, 120, 150, 250 and 1200 minutes.
Control 1 consisted of Adsorbate 1 administered into PBS without the lipophilic microphase-forming material, and a sufficient amount of adsorbate was added so that the concentration of drug would have been 50 μg/mL, if all of the drug had dissolved. An in vitro dissolution test was performed with Control 1 using the procedures outlined for Example 1 and the results are shown in Table 1.
Control 2 consisted of crystalline Drug 1 administered into PBS containing 1 mg/mL of the lipophilic microphase-forming material Cremophor RH40, and a sufficient amount of Drug 1 was added so that the concentration would have been 50 μg/mL, if all of the drug had dissolved. An in vitro dissolution test was performed with Control 2 using the procedures outlined for Example 1 and the results are shown in Table 1.
Control 3 consisted of crystalline Drug 1 administered into PBS without the lipophilic microphase-forming material, and a sufficient amount of crystalline Drug 1 was added so that the concentration of drug would have been 50 μg/mL, if all of the drug had dissolved. An in vitro dissolution test was performed with Control 3 using the procedures outlined for Example 1 and the results are shown in Table 1.
Example 2 consisted of Adsorbate 1 administered in solution with a different lipophilic microphase-forming material. At time 0, a 4 mg sample of Adsorbate 1 was added to 40 mL phosphate buffered saline (PBS) at pH 6.5 and 290 mOsm/kg, containing 1 mg/mL of 5/2 (wt/wt) Cremaphor RH40/Capmul MCM (available from Abitec of Janesville, Wis.); the concentration of drug would have been 50 μg/mL, if all of the drug had dissolved. The test solution was stirred at room temperature in a syringe equipped with a Gelman Acrodisc 13 CR 0.45 μm PTFE filter, as described for Example 1. Samples were collected and analyzed using UV to determine the concentration of Drug 1 in solution.
Control 4 consisted of crystalline Drug 1 administered into PBS containing 5/2 (wt/wt) Cremophor RH40/Capmul MCM, and a sufficient amount of Drug 1 was added so that the concentration would have been 50 μg/mL, if all of the drug had dissolved.

[2] = In vitro dissolution test of Drug 2 compositions in PBS pH 6.5, room temperature, 0.45 μm syringe filter, UV; 50 μg/mL if all drug dissolved
Procedure: Example 3 consisted of Adsorbate 2 administered into solution with a lipophilic microphase-forming material. At time 0, a 6.656 mg sample of Adsorbate 2 was added to 40 mL of phosphate buffered saline (PBS) at pH 6.5 and 290 mOsm/kg, containing 1 mg/mL of PEG 6000 distearate (the concentration of drug would have been 50 μg/mL, if all of the drug had dissolved). The test solution was stirred at room temperature in a syringe equipped with a Gelman Acrodisc 13 CR 0.45 μm PTFE filter, as described for Example 1. Samples were collected and analyzed using UV to determine the concentration of Drug 2 in solution.
Control 5 consisted of Adsorbate 2 administered into PBS without the lipophilic microphase-forming material, and a sufficient amount of sample was added so that the concentration of drug would have been 50 μg/mL, if all of the drug had dissolved.
Control 6 consisted of crystalline Drug 2 administered into PBS containing PEG 6000 Distearate, and a sufficient amount of Drug 2 was added so that the concentration would have been 50 μg/mL, if all of the drug had dissolved.
Control 7 consisted of crystalline Drug 2 administered into PBS without the lipophilic microphase-forming material, and a sufficient amount of sample was added so that the concentration of drug would have been 50 μg/mL, if all of the drug had dissolved.

[3] = In vitro dissolution test of Drug 3 compositions (Example 4 in MOPS buffer pH 7.4, controls given as PBS), room temperature, 0.45 μm syringe filter, UV; 50 μg/mL if all drug dissolved
Procedure: Example 4 consisted of Adsorbate 3 administered into solution with a lipophilic microphase-forming material. At time 0, an 8.02 mg sample of Adsorbate 3 was added to 40 ml of 50 mM 3-(4-morpholino propane sulfonic acid) sodium salt (MOPS) buffer at pH 7.4, containing 5 mg/mL of Tween 80 (available from ICI Americas Inc); the concentration of drug would have been 50 μg/mL, if all of the drug had dissolved. The test solution was stirred at room temperature in a syringe equipped with a Gelman Acrodisc 13 CR 0.45 μm PTFE filter, as described for Example 1. Samples were collected and analyzed using UV to determine the concentration of Drug 3 in solution.
Control 8 consisted of Adsorbate 3 administered into PBS without the lipophilic microphase-forming material, and a sufficient amount of sample was added so that the concentration of drug would have been 50 μg/mL, if all of the drug had dissolved.
Control 9 consisted of crystalline Drug 3 administered into PBS containing Tween 80, and a sufficient amount of Drug 3 was added so that the concentration would have been 50 μg/mL, if all of the drug had dissolved.
Control 10 consisted of crystalline Drug 3 administered into PBS without the lipophilic microphase-forming material, and a sufficient amount of sample was added so that the concentration of drug would have been 50 μg/mL, if all of the drug had dissolved.

Question: For `CCOC(=O)N1c2ccc(C(F)(F)F)cc2[C@@H](N(Cc2cc(C(F)(F)F)cc(C(F)(F)F)c2)C(=O)OC)C[C@H]1CC` [Control 3, [2R,4S] 4-[(3,5-bis-trifluoromethyl-benzyl)-methoxycarbonyl-amino]-2-ethyl-6-trifluoromethyl-3,4-dihydro-2H-quinoline-1-carboxylic acid ethyl ester], which AUC90 ([1]; Drug 1, area under the aqueous concentration versus time curve after 90 minutes) is on record?
Answer: Its AUC90 is under 45 µg·min/mL.

Question: And the AUC ([1]; Drug 1, time 0 min)?
Answer: Its AUC is 0 µg·min/mL.

Question: What about the AUC ([1]; Drug 1, time 1 min) of the same compound?
Answer: The AUC was under 1 µg·min/mL.

Question: And the AUC ([1]; Drug 1, time 3 min)?
Answer: The AUC was under 2 µg·min/mL.

Question: What about the AUC ([1]; Drug 1, time 5 min) of the same compound?
Answer: The AUC was under 3 µg·min/mL.

Question: And the AUC ([1]; Drug 1, time 10 min)?
Answer: The AUC was under 5 µg·min/mL.

Question: What about the AUC ([1]; Drug 1, time 15 min) of the same compound?
Answer: The AUC was under 8 µg·min/mL.

Question: What about the AUC ([1]; Drug 1, time 20 min) of the same compound?
Answer: Its AUC is under 10 µg·min/mL.

Question: And the AUC ([1]; Drug 1, time 30 min)?
Answer: The AUC was under 15 µg·min/mL.

Question: What about the AUC ([1]; Drug 1, time 45 min) of the same compound?
Answer: Its AUC is under 23 µg·min/mL.

Question: What about the AUC ([1]; Drug 1, time 60 min) of the same compound?
Answer: The AUC was under 30 µg·min/mL.

Question: What about the AUC ([1]; Drug 1, time 90 min) of the same compound?
Answer: Its AUC is under 45 µg·min/mL.

Question: And the AUC ([1]; Drug 1, time 120 min)?
Answer: Its AUC is under 60 µg·min/mL.

Question: What about the AUC ([1]; Drug 1, time 1200 min) of the same compound?
Answer: Its AUC is under 600 µg·min/mL.

Question: And the MDC90 ([1]; maximum concentration of Drug 1 in solution during the first 90 minutes)?
Answer: The MDC90 was under 0.5 µg/mL.

Question: What about the “Drug 1 Concentration” value ([1]; time 0 min) of the same compound?
Answer: The value was under 0.5 µg/mL.

Question: What about the “Drug 1 Concentration” value ([1]; time 1 min) of the same compound?
Answer: The value was under 0.5 µg/mL.

Question: And the “Drug 1 Concentration” value ([1]; time 3 min)?
Answer: The value was under 0.5 µg/mL.

Question: What about the “Drug 1 Concentration” value ([1]; time 5 min) of the same compound?
Answer: The value was under 0.5 µg/mL.

Question: What about the “Drug 1 Concentration” value ([1]; time 10 min) of the same compound?
Answer: Its value is under 0.5 µg/mL.

Question: What about the “Drug 1 Concentration” value ([1]; time 15 min) of the same compound?
Answer: The value was under 0.5 µg/mL.

Question: And the “Drug 1 Concentration” value ([1]; time 20 min)?
Answer: The value was under 0.5 µg/mL.

Question: What about the “Drug 1 Concentration” value ([1]; time 30 min) of the same compound?
Answer: The value was under 0.5 µg/mL.

Question: And the “Drug 1 Concentration” value ([1]; time 45 min)?
Answer: The value was under 0.5 µg/mL.

Question: What about the “Drug 1 Concentration” value ([1]; time 60 min) of the same compound?
Answer: The value was under 0.5 µg/mL.

Question: What about the “Drug 1 Concentration” value ([1]; time 90 min) of the same compound?
Answer: Its value is under 0.5 µg/mL.

Question: What about the “Drug 1 Concentration” value ([1]; time 120 min) of the same compound?
Answer: Its value is under 0.5 µg/mL.

Question: And the “Drug 1 Concentration” value ([1]; time 1200 min)?
Answer: Its value is under 0.5 µg/mL.

Question: Which results are given for `CC[C@@H]1C[C@H](N(Cc2cc(C(F)(F)F)cc(C(F)(F)F)c2)C(=O)OC)c2cc(C(F)(F)F)ccc2N1C(=O)OC(C)C` [Control 7, [2R,4S] 4-[(3,5-bis-trifluoromethyl-benzyl)-methoxycarbonyl-amino]-2-ethyl-6-trifluoromethyl-3,4-dihydro-2H-quinoline-1-carboxylic acid isopropyl ester]?
Answer: AUC90 ([2]; Drug 2, area under the aqueous concentration versus time curve after 90 minutes): <45 µg·min/mL; AUC ([2]; Drug 2, time 0 min): 0 µg·min/mL; AUC ([2]; Drug 2, time 1 min): <1 µg·min/mL; AUC ([2]; Drug 2, time 2 min): <1 µg·min/mL; AUC ([2]; Drug 2, time 3 min): <2 µg·min/mL; AUC ([2]; Drug 2, time 5 min): <3 µg·min/mL; AUC ([2]; Drug 2, time 10 min): <5 µg·min/mL; AUC ([2]; Drug 2, time 15 min): <8 µg·min/mL; AUC ([2]; Drug 2, time 20 min): <10 µg·min/mL; AUC ([2]; Drug 2, time 30 min): <15 µg·min/mL; AUC ([2]; Drug 2, time 45 min): <23 µg·min/mL; AUC ([2]; Drug 2, time 64 min): <32 µg·min/mL; AUC ([2]; Drug 2, time 90 min): <45 µg·min/mL; AUC ([2]; Drug 2, time 160 min): <80 µg·min/mL; AUC ([2]; Drug 2, time 1200 min): <600 µg·min/mL; MDC90 ([2]; maximum concentration of Drug 2 in solution during the first 90 minutes): <0.5 µg/mL; Drug 2 Concentration ([2]; time 0 min): <0.5 µg/mL; Drug 2 Concentration ([2]; time 1 min): <0.5 µg/mL; Drug 2 Concentration ([2]; time 2 min): <0.5 µg/mL; Drug 2 Concentration ([2]; time 3 min): <0.5 µg/mL; Drug 2 Concentration ([2]; time 5 min): <0.5 µg/mL; Drug 2 Concentration ([2]; time 10 min): <0.5 µg/mL; Drug 2 Concentration ([2]; time 15 min): <0.5 µg/mL; Drug 2 Concentration ([2]; time 20 min): <0.5 µg/mL; Drug 2 Concentration ([2]; time 30 min): <0.5 µg/mL; Drug 2 Concentration ([2]; time 45 min): <0.5 µg/mL; Drug 2 Concentration ([2]; time 64 min): <0.5 µg/mL; Drug 2 Concentration ([2]; time 90 min): <0.5 µg/mL; Drug 2 Concentration ([2]; time 160 min): <0.5 µg/mL; Drug 2 Concentration ([2]; time 1200 min): <0.5 µg/mL

Question: Which AUC90 ([3]; Drug 3, area under the aqueous concentration versus time curve after 90 minutes) does the source give for `O=C1Cc2cc(CCN3CCN(c4nsc5ccccc45)CC3)c(Cl)cc2N1` [Control 10] here?
Answer: Its AUC90 is under 90 µg·min/mL.

Question: What about the AUC ([3]; Drug 3, time 0 min) of the same compound?
Answer: The AUC was under 1 µg·min/mL.

Question: What about the AUC ([3]; Drug 3, time 5 min) of the same compound?
Answer: Its AUC is under 5 µg·min/mL.

Question: What about the AUC ([3]; Drug 3, time 10 min) of the same compound?
Answer: The AUC was under 10 µg·min/mL.

Question: And the AUC ([3]; Drug 3, time 20 min)?
Answer: The AUC was under 20 µg·min/mL.

Question: And the AUC ([3]; Drug 3, time 40 min)?
Answer: The AUC was under 40 µg·min/mL.

Question: What about the AUC ([3]; Drug 3, time 90 min) of the same compound?
Answer: The AUC was under 90 µg·min/mL.

Question: And the AUC ([3]; Drug 3, time 1260 min)?
Answer: Its AUC is under 1260 µg·min/mL.

Question: And the MDC90 ([3]; maximum concentration of Drug 3 in solution during the first 90 minutes)?
Answer: Its MDC90 is under 1 µg/mL.

Question: And the “Drug 3 Concentration” value ([3]; time 0 min)?
Answer: Its value is under 1 µg/mL.

Question: And the “Drug 3 Concentration” value ([3]; time 5 min)?
Answer: Its value is under 1 µg/mL.

Question: What about the “Drug 3 Concentration” value ([3]; time 10 min) of the same compound?
Answer: Its value is under 1 µg/mL.

Question: And the “Drug 3 Concentration” value ([3]; time 20 min)?
Answer: The value was under 1 µg/mL.

Question: And the “Drug 3 Concentration” value ([3]; time 40 min)?
Answer: Its value is under 1 µg/mL.

Question: And the “Drug 3 Concentration” value ([3]; time 90 min)?
Answer: The value was under 1 µg/mL.

Question: And the “Drug 3 Concentration” value ([3]; time 1260 min)?
Answer: The value was under 1 µg/mL.
